The values below come from patent publication US7201899B2, “Materials and methods for management of hyperacute rejection in human xenotransplantation” (BresaGen Limited, priority 1994, dated 2007).

Entries after “also recorded” stand apart in the source; their conditions may differ. Some results are limits rather than exact numbers.

Assay [1] concerns pig kidney, heart and liver sections. The assay can be described thus: Immunostaining of pig tissues with anti-GAL antibodies. As to conditions: pig renal cortex sections, proximal tubule brush borders; sugar 0.1 M. The assay is classed as binding. On the procedure: Pig kidney was fixed in formalin and dehydrated before embedding in Paraplast. Pig heart and liver were fixed in paraformaldehyde-lysine-periodate fixative and snap frozen in O.C.T. embedding compound (10.24% w/w polyvinyl alcohol, 4.26% w/w polyethylene glycol, 85.50% w/w nonreactive ingredients; Tissue Tek®, Miles, Inc., Elkhart, Ind., USA). Four μm-thick sections of pig heart and liver and 2 μm-thick sections of kidney were incubated with purified anti-GAL antibodies (undiluted, 1:2 and 1:4) for 60 min. and then incubated with a fluorescein isothiocyanate (FITC)-conjugated sheep anti-human immunoglobulin F(ab′) fragment. (Silenus Laboratories, Hawthorn, Australia) (1:100) for 30 min. or a peroxidase-conjugated rabbit anti-human IgG (Dakopatts, Glostrup, Denmark) (1:50) for 60 min. Control sections were analyzed for autofluorescence, with the secondary antibody alone, or with the anti-GAL-depleted IgG or normal pig serum as the primary antibody. […] The specificity of the anti-GAL antibodies was tested by pre-incubating sections of pig renal cortex with a variety of sugars, including melibiose, lactose, sucrose and glucose at 0.1 M.

The next assay concerns PK-1 and PAE's cells. Description: Antibody staining and FACS analysis of porcine cells. As to conditions: for inhibition of anti-GAL IgM and/or IgG staining of porcine cells by sugar: anti-GAL antibodies pre-incubated with sugar (0.1 M) at 37° C. for 30 min; for decrease of anti-GAL antibody staining of PAE's (FIG. 1): anti-GAL antibody pre-incubated with sugar, versus anti-GAL antibody alone. The class given is binding. The method, then: C. Antibody Staining and FACS Analysis • 1) Add 2 ml TED to a 75 cm^2 culture flask containing PK-1 or PAE'S, and incubate at room temperature for 10 min. • 2) Add RPMI plus 10% FCS (5 ml) to neutralize trypsin. • 3) Pellet cells by centrifugation (700 g, 5 min, • 4) Wash cells by resuspension and centrifugation in Hanks Buffer (×2). • 5) Pellet cells by centrifugation (700 g, 5 min, 4° C.). • 6) Resuspend cell pellet in Hanks buffer containing purified anti-GAL antibodies, GAL-depleted serum or GAL-depleted IgG and incubate at 4° C. for 60 min. All antibodies were used undiluted, or diluted 1:2 or 1:4 in Hanks buffer. • 7) Add 1 ml of Hanks Buffer, pellet cells by centrifugation and aspirate off supernatant. • 8) Resuspend pellet in FITC-labelled sheep-anti-human IgG Fab2 or IgM Fab2 (Silenus, Hawthorn, Australia) diluted 1:80 in Hanks buffer. • 9) Incubate for 30 min. at 4° C. • 10) Wash three times with Hanks buffer; resuspend pellet from final wash in 0.5 ml Hanks buffer. • 11) Analyze stained samples using a FACScan II (Becton Dickinson) according to the manufacturer's instructions.
The specificity of the anti-GAL antibody binding to porcine cells was determined by examining the ability of sugars of various structures to inhibit antibody binding. In these competition studies the anti-GAL antibodies were pre-incubated with sugar (0.1 M) at 37° C. for 30 min before adding to the cells.

In a further assay the test system is pig RBC. Description: Hemagglutination of pig RBC by human serum: sugar inhibition. As to conditions: for Inhibitory Concentration: inhibition of pig RBC hemagglutination by pooled human AB serum; for concentration range inhibiting agglutination (in words): pig RBC agglutination by human serum. The assay is classed as cell-based. On the procedure:
The methods used to investigate the hemagglutination of pig red blood cells (RBC's) by human serum was adapted from the methods described by Galili, J. Exp. Med. 160: 1579–81 (1984) and Severson, Immunol. 96: 785–789 (1966).
A. Media/Solution Preparation • 1. Human Serum Albumin (HSA) (CSL, Melbourne, Australia) (5 mg/ml) was dissolved in PBS, filter sterilized, and stored at 4° C. • 2. Preparation of sugars: • 1 M stock solutions of sugar were prepared by dissolving the amount indicated in 100 ml of PBS. Sodium azide was added (0.02%) and solutions stored at 4° C.
B. Preparation of Pig RBC'S • 1. Heparinised pig blood (Animal Resources, Clayton, Australia) is centrifuged at 800 RPM for 10 min to pellet the RBC. • 2. The RBC pellet is washed by resuspension in PBS (10 ml) and recentrifugation (repeated 3 times). After the final wash, the RBC pellet is resuspended in 10 ml PBS. • 3. A 0.5% solution of RBC's is prepared by adding 50 ul RBC solution (from step 2, above) to 10 ml PBS containing 0.5 g/100 ml of HSA.
C. Preparation of 96-well Microtitre Plates (Titretek. USA) • 1. Add 25 ul of PBS to each well. • 2. Add 25 ul of pooled human AB serum (CSL, Melbourne, Australia) to column 1 and serially dilute by removing 25 ul from column 1 and adding to column 2, then repeating by sequentially removing and adding 25 ul from and to each well across the plate, finally discarding 25 μl from column 11 and adding no serum to column 12. • 3. Add 25 ul of sugar solution to each row in decreasing concentrations down rows. No sugar solution is added to the final row. • 4. Incubate at 4° C. overnight and then at 37° C. for 30 min. • 5. Add 50 ul of 0.5% pig RBC to each well; vortex and incubate at room temperature for 2 hours. Determine agglutination visually. II. Results

A further assay relates to PAE's. Description: Cytotox LDH release assay: effect of sugars on lysis of PAE's by human serum. The assay is classed as cell-based, porcine. Particulars: 50% human serum, sugar 1 mM to 100 mM. The method, then:
B. LDH Release Assay • 1. […] Controls: • a) Spontaneous release (no antibody or complement) • 25 μl labeled cells • 75 μl RPMI/10% FCS (heat inactivated) • b) Maximum release • 25 μl labeled cells • 50 μl 16% Triton X-100 • 25 μl RPMI/10% FCS (heat inactivated) • 3. Calculation of % Lysis: % Lysis=Experimental release−(Spontaneous release cpm+sugar cpm)×100 Maximum release−(Spontaneous release cpm+sugar cpm) • 4. Experimental Design:
The effect of adding the disaccharide sugars melibiose ([…]) and lactose (Gal β1→4 Glu) on the lysis of PAE's by human serum was assessed using the Cytotox non-radioactive LDH release assay. PAE's were incubated in the presence of 50% human serum as the source of xenoantibody and complement, together with various concentrations of each sugar (1 mM to 100 mM).
On the technique in general: Release of lactate dehydrogenase indicates damage to the cell membrane.

For `OC[C@H]1O[C@@H](O[C@H]2[C@H](O)[C@@H](O)[C@@H](O)O[C@@H]2CO)[C@H](O)[C@@H](O)[C@H]1O` [Lactose, 4-O-β-D.galactopyranosyl-α-D-glucose], the “inhibition of anti-GAL antibody binding to pig tissue by sugar” value in assay [1] is recorded as “not inhibited”. Moreover, in the assay on PK-1 and PAE's cells, the “inhibition of anti-GAL IgM and/or IgG staining of porcine cells by sugar” value is on record as “not inhibited” and the “decrease of anti-GAL antibody staining of PAE's (FIG. 1)” value was “not affected significantly”. In addition, in the assay with pig RBC, the “Inhibitory Concentration” value is recorded as >10^−1M and the “concentration range inhibiting agglutination (in words)” value is “only inhibitory when very high concentrations were used”. Besides, the “protection of PAE's from lysis by human serum” value with PAE's was “not”.
With `O=C[C@H](O)[C@@H](O)[C@H](O)[C@H](O)CO[C@H]1O[C@H](CO)[C@H](O)[C@H](O)[C@H]1O` [Melibiose, 6-O-α-D-galactopyranosyl-D-glucose], in assay [1], the “inhibition of anti-GAL antibody binding to pig tissue by sugar” value is “reduced to near background; also recorded: inhibited”. Also, in the assay with PK-1 and PAE's cells, the “inhibition of anti-GAL IgM and/or IgG staining of porcine cells by sugar” value is “inhibited” and the “decrease of anti-GAL antibody staining of PAE's (FIG. 1)” value was “approximately 10 fold less”. Besides, in the assay with pig RBC, the “Inhibitory Concentration” value is 0.0005 M and the “concentration range inhibiting agglutination (in words)” value was “μM to mM range”. The “protection of PAE's from lysis by human serum” value in the assay with PAE's is “protected the pig cells from lysis”.
